Data from patent US5976875A, “Diacylglycerol kinase isoforms epsilon and zeta and methods of use thereof” (priority 1997, dated 1999).
Like-named read-outs stand apart in the source and are kept apart here. Each block holds one compound with its values, some of them ahead of it.

Experiments:
DGKε = target: T1, DGKε (Homo sapiens, UniProt P52429); test: octyl glucoside/PS mixed-micelle assay of DGK activity, homogenates of DGKε-transfected COS-7 cells; type: biochemical; details: for inhibition of DGKε activity: 100 μm inhibitor, homogenates from transfected cells
T1 construct: a PCR product of the DGKε cDNA lacking the 3'-untranslated region and part of the 5'-untranslated region was amplified; expressed in transfected cells; host or cells: COS-7
T1 sequence (P52429 1-567): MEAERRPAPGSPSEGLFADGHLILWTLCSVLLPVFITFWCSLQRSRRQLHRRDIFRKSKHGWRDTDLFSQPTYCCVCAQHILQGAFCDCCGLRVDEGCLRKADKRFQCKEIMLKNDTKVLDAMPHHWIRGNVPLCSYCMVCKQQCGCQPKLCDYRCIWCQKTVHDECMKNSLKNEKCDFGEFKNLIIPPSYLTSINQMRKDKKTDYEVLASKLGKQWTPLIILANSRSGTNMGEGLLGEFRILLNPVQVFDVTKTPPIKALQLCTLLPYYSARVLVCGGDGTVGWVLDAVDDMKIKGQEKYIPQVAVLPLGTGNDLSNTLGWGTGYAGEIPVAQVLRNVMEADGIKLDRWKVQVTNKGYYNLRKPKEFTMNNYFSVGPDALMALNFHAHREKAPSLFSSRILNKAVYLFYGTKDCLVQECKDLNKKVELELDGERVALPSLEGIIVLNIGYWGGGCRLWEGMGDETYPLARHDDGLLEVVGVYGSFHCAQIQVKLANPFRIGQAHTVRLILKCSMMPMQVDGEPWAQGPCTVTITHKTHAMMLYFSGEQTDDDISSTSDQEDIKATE
Method: COS-7 Transfection and Assay of DGK Activity--COS-7 transfection was carried out using LipofectAMINE reagent (Life Technologies, Inc.), and all steps were followed by the protocol provided by the manufacturer. After 2.5 days, the cells were harvested and lysed by sonication (twice with 5 watts for 5 s at 4° C.) in the lysis buffer (0.1 ml/35 mm well) containing 20 mm Tris-HCL, pH 7.4, 0.25 m sucrose, 1 mm EDTA, 4 mm EGTA, 1 mm dithiothreitol, 1 mm phenylmethylsulfonyl fluoride, a 20 μg/ml concentration of each: leupeptin, pepstatin, aprotinin, and soybean trypsin inhibitor. Kai, M., Sakane, F., Imai, S., Wada, I., and Kanoh, H. (1994) J. Biol. Chem. 269, 18492-18498. The protein concentration of the cell homogenate was determined with the BCA protein assay reagent (Pierce). In two experiments, the homogenate was separated into soluble and membrane-bound fractions by centrifugation at 100,000×g for 60 min. (4° C.). The pellet was resuspended in lysis buffer, and both fractions were assayed for DGK activity.
Since the full-length cDNA of DGKε could not be expressed in COS-7 cells, a PCR product of the DGKε cDNA lacking the 3'-untranslated region and part of the 5'-untranslated region was amplified and cloned into pcDNA/Neo (Invitrogen). The forward primer (SEQ ID NO: 10):
The octyl glucoside/PS mixed-micelle assay of DGK activity was performed as described. Walsh, J. P., Suen, R., Lemaitre, R. N., and Glomset, J. A. (1994) J. Biol. Chem. 269, 21155-21164. In brief, the assay mixture contained 50 mm MOPS, pH 7.2, 100 mm NaCl, 20 mm MgCl2, 1 mm EGTA, 1 mm dithoiothreitol, 2 mm discylglycerol, 3.5 mm phosphatidylserine, 75 mm octyl-β-glucopyranoside, 500 μm [γ-^32 P] ATP, and 20 μg of cellular protein in a volume of 200 μl. The reaction was initiated by the addition of [γ-^32 P] ATP (20-30 μCi/μmol) and processed for 10 min at 24° C. […] The amount of phosphatidic acid formed per reaction was calculated by dividing the radioactivity in phosphatidic acid by the specific radioactivity of the ATP in the reaction.

[1] = system: protein kinase M (PKM), catalytic fragment of mixed rat brain PKC isozymes; test: Phosphorylation of peptides by PKM (kinetics); type: biochemical; details: for Km: 10 minute reaction, 30° C., read-out: Km as substrate for PKM
Method: Phosphorylation of peptides and proteins--Peptides were phosphorylated by the purified catalytic fragment of mixed rat brain PKC isozymes (protein kinase M; PKM). In all cases involving kinetic measurements, the peptides were phosphorylated by PKM (1:120 dilution of frozen stock solution) at 30° C. All reactions were performed in the linear range of peptide phosphorylation, in an assay mixture containing 40 mM Hepes (pH 7.4), 0.25 mM EGTA, 12.5 mM MgCl2, 75 μM y-[^32 P]ATP, and various concentrations of peptides. In the peptide experiments, the reactions were stopped after 10 minutes by the addition of 1/5 vol of 5×SDS sample buffer, boiled for 5 minutes and then subjected to electrophoresis on 20% acrylamide gels. After the gels were dried, the phosphorylated peptides were localized by autoradiography, excised from the gel, and subjected to Cerenkov scintillation counting.

DGK.zeta. [2] = target: T2, DGK.zeta. (Homo sapiens, UniProt Q13574); test: DAG kinase assay, homogenates of DGK.zeta.-transfected COS-7 cells; type: biochemical; details: for nmol phosphatidic acid/mg/h (DAG substrate specificity of DGK.zeta.): each diacylglycerol used as substrate, Table I
T2 construct: The DGK.zeta. cDNA was expressed in pcDNA 1/AMP (Invitrogen) in the foward orientation; expressed in transfected cells; host or cells: COS-7
T2 sequence (Q13574 whole entry): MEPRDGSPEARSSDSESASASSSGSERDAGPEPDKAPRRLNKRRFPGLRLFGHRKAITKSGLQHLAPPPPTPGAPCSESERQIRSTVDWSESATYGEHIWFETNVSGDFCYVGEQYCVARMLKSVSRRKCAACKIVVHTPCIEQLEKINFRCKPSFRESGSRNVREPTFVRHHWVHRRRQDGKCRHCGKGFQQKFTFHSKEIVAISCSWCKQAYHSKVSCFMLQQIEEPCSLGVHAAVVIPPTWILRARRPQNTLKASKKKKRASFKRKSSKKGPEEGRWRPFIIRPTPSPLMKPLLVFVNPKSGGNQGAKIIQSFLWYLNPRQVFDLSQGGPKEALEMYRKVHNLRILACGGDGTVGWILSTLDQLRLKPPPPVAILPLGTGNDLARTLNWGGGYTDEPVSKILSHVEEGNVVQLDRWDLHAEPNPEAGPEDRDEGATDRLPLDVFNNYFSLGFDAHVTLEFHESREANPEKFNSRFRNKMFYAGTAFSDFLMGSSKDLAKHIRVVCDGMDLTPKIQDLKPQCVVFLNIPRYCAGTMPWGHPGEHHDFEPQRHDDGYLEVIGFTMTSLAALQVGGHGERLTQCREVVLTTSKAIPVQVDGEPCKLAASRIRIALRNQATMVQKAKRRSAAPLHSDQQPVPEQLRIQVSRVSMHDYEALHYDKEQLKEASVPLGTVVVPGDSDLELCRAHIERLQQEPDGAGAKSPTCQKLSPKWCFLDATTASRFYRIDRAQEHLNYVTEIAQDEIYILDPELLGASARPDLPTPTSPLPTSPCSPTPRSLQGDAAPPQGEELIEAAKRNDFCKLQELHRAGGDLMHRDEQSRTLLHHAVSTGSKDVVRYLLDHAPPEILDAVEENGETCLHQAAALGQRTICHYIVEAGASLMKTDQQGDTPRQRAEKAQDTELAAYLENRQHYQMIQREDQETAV
Method: (§1) COS-7 Transfection--The DGK.zeta. cDNA was expressed in pcDNA 1/AMP (Invitrogen) in the foward orientation. Each p35 dish containing COS-7 cells at 60-80% confluence was transfected with 1 μg of plasmid DNA and 5 μl of LipofectAMINE according to manufacturer specifications (Life Technologies Inc.). The cells were harvested by washing with ice-cold Hanks' balanced salt solution (Ca^2+ - and […] -free) and were scraped into resuspension buffer (20 mM Tris-HCl, pH 7.4, 0.25 M sucrose, 1 mM EDTA, 4 mM EGTA, 1 mM dithiothreitol, 1 mM pheylmethylsulfonyl fluoride, 20 μg/ml each leupeptin, pepstain, aprotinin, and soybean trypsin inhibitor) 48 h following transfection. All homogenates were frozen on dry ice and stored at -70° C. until assayed.
(§2) DAG Kinase Assay--Cell homogenates were sonicated twice with 5 watts for 5 at 4° C. The protein concentration of each cell homogenate was measured following trichloracetic acid precipitation utilizing the BCA protein assay reagent (Pierce). Each assay contained 50 mM MOPS, pH 7.2, 100 mM NaCl, 20 mM MgCl2, 1 mM EGTA, 1 mM dithiothreitol, 2 mM 1,2-dieleoyl-an-glycerol, 3.5 mM phosphatidylserine, 75 mM octyl-β-glucopyranoside, 500 μM [γ^32 ]ATP, and 0-20 μg of cell homogenate in a volume of 200 μl. For substrate specificity experiments, various diacylglycerol species were substituted for 1,2-dioleoyl-an-glycerol. The reactions were initiated by the addition of ATP (20-30 μCi/μmol), were incubated for 10 min. At 24° C., and were terminated by the addition of 200 μl of 1% perchloric acid. Then, to each tube, we added 1.0 ml of MeOH, 1.0 ml of […], 500 μl of 1% perchloric acid, and 50 μg of phosphatidic acid, vortexed them well, and centrifuged them for 10 min at 400×g. The remaining lower phase was dried under N2 and resuspended in 100 μl of 9:1 CHCl3 /MeOH. Fifty μl of each sample were counted directly by liquid acintillation spectrometry, and the remainder was applied to a 20×20 cm Silica 60A thin layer chromatography plate (Whatman). […] The region containing phosphatidic acid (as indicated by radiolabeled standards) and the remaining areas of each lane were scraped separately, and the radioactivity was estimated by liquid scintillation spectrometry. The amount of phosphatidic acid formed per reaction was calculated as [2(direct count)(PA cpm)(total lane cpm)]×[mole ATP/cpm]. R59959 was dissolved in dimethyl sulfoxide and added to relevant enzymatic reactions just prior to the addition of ATP.

DGK.zeta. [3] = test: as above; type: biochemical, human
Method: as §1, §2

effect of increased phosphatidylserine concentration on DGKε activity (DGKε; additional 3.5 mm phosphatidylserine added to reaction mixture): only slightly increased
Compound: phosphatidylserine

Km ([1]; listed as native peptide): ~0.5 µM
Km [1]: 0.5 µM
Hill constant ([1]; phosphorylation by PKM): 0.7
Compound: KASKKKKRASFKRKSSKK [DGK peptide, 18 amino acid peptide corresponding to residues 256-273 of DGK.zeta]

inhibition of DGKε activity (DGKε): approximately 11%
Compound: Cc1nc2sccn2c(=O)c1CCN1CCC(=C(c2ccccc2)c2ccc(F)cc2)CC1 [R59022]

nmol phosphatidic acid/mg/h (DAG substrate specificity of DGK.zeta.) (DGK.zeta. [2]): 1106 ± 34 nmol phosphatidic acid/mg/h
Compound: CCCCC/C=C\C/C=C\C/C=C\C/C=C\CCCC(=O)O[C@@H](CO)COC(=O)CCCCCCCCCCCCCCCCC [1-Stearoyl-2-arachidonyl-sn-glycerol]

DGK activity (DGK.zeta. [2]; 1,2-dicapryl-sn-glycerol substrate, typical experiment, FIG. 21): 7.5 nmol/mg/min
increase in DGK activity compared to vector-transfected cells (DGK.zeta. [2]; 1,2-dioleoyl-sn-glycerol substrate, FIG. 7): 267 fold
Compound: DGK.zeta.: human diacylglycerol kinase zeta, 928-amino acid protein (SEQ ID NO: 4)
catalytic activity (DGK.zeta. [3]; native vs ankyrin repeat-deleted (FLAG-tagged) DGK.zeta.): 1764 nmol PA/mg/hr
DGK.zeta. activity (DGK.zeta. [3]; native vs zinc finger deletion mutants, Table II): 243 nmol PA/mg/hr
Relative activity (DGK.zeta. [3]; relative to native DGK.zeta. = 100, Table II): 100

inhibition of DGKε activity (DGKε): ~41%
activity at 100 µM (DGK.zeta. [2]; 100 μm R59949, read-out: DGK.zeta. activity in presence of inhibitor): 94%
DAG kinase activity of DGK.zeta.-transfected cells in presence of inhibitor (DGK.zeta. [2]; summary statement): not altered
Compound: O=c1c2ccccc2[nH]c(=S)n1CCN1CCC(=C(c2ccc(F)cc2)c2ccc(F)cc2)CC1 [R59949]

nmol phosphatidic acid/mg/h (DAG substrate specificity of DGK.zeta.) (DGK.zeta. [2]): 801 ± 13 nmol phosphatidic acid/mg/h
Compound: CCCCCCCC/C=C\CCCCCCCC(=O)O[C@@H](CO)COC(=O)CCCCCCCCCCCCCCCCC [1-Stearoyl-2-oleoyl-sn-glycerol]

Second part, the compound before the results:

Compound: CCCCCCCC/C=C\CCCCCCCC(=O)O[C@@H](CO)COC(=O)CCCCCCCCCCCCCCC [1-Palmitoyl-2-oleoyl-sn-glycerol]
nmol phosphatidic acid/mg/h (DAG substrate specificity of DGK.zeta.) (DGK.zeta. [2]): 805 ± 8 nmol phosphatidic acid/mg/h

Compound: CCCCCCCC/C=C\CCCCCCCC(=O)OC[C@H](CO)OC(=O)CCCCCCCCCCCCCCC [1-Oleoyl-2-palmitoyl-sn-glycerol]
nmol phosphatidic acid/mg/h (DAG substrate specificity of DGK.zeta.) (DGK.zeta. [2]): 856 ± 35 nmol phosphatidic acid/mg/h

Compound: CCCCCCCCCC(=O)OC[C@H](CO)OC(=O)CCCCCCCCC [1,2-Dicapryl-sn-glycerol]
nmol phosphatidic acid/mg/h (DAG substrate specificity of DGK.zeta.) (DGK.zeta. [2]): 1440 ± 42 nmol phosphatidic acid/mg/h

Compound: [Ca+2] [calcium]
effect of excess calcium on DGK.zeta. activity (DGK.zeta. [2]; 0.1-2 mm calcium added at start of reaction): no increase in activity

Compound: CCCCCCCC/C=C\CCCCCCCC(=O)OCC(O)COC(=O)CCCCCCC/C=C\CCCCCCCC [1,3-Dioleoyl-sn-glycerol]
nmol phosphatidic acid/mg/h (DAG substrate specificity of DGK.zeta.) (DGK.zeta. [2]): 110 ± 8 nmol phosphatidic acid/mg/h

Compound: CCCCCCCC/C=C\CCCCCCCC(=O)OC[C@H](CO)OC(=O)CCCCCCC/C=C\CCCCCCCC [1,2-Dioleoyl-sn-glycerol]
nmol phosphatidic acid/mg/h (DAG substrate specificity of DGK.zeta.) (DGK.zeta. [2]): 1021 ± 9 nmol phosphatidic acid/mg/h
